Assay results published in ChEMBL document CHEMBL5500405, “Design and Synthesis of Clinical Candidate PF-06852231 (CVL-231): A Brain Penetrant, Selective, Positive Allosteric Modulator of the M4 Muscarinic Acetylcholine Receptor” (J Med Chem, 2024).

How the values were obtained:
[1] = Stability of compound at pH 1 assessed as half-life by 1H NMR assay; assay type: physicochemical; details: buffer
[2] = Unbound plasma concentration in mouse at 1 mg/kg, sc; assay type: ADME, organism-based; details: in vivo
[3] = Unbound plasma concentration in mouse at […], sc; assay type: ADME, organism-based; details: in vivo, dose 3.2 mg/kg
[4] = Unbound plasma concentration in mouse at 10 mg/kg, sc; assay type: ADME, organism-based; details: in vivo
[5] = Unbound plasma concentration in mouse at 32 mg/kg, sc; assay type: ADME, organism-based; details: in vivo
[6] = Unbound brain concentration in mouse at 1 mg/kg, sc; assay type: ADME, organism-based; details: in vivo
[7] = Unbound brain concentration in mouse at […], sc; assay type: ADME, organism-based; details: in vivo, dose 3.2 mg/kg
[8] = Unbound brain concentration in mouse at 10 mg/kg, sc; assay type: ADME, organism-based; details: in vivo
[9] = Unbound brain concentration in mouse at 32 mg/kg, sc; assay type: ADME, organism-based; details: in vivo
[10] = Lipophilicity, logD of compound by shake flask method; assay type: physicochemical; details: octanol/water

Structure (SMILES): Cc1cc(C)c2c(n1)CN(C(=O)CC1CN(c3ccccc3)C1)C2
- half-life [1]: 9 min

Structure (SMILES): Cc1cc(C)c2c(n1)CN(C(=O)CC1CN(c3ccnc(C(F)(F)F)c3)C1)C2 [EMRACLIDINE]
- Cp(f) [2]: 26 nM
- Cp(f) [3]: 47 nM
- Cp(f) [4]: 219 nM
- Cp(f) [5]: 480 nM
- Drug uptake(free) [6]: 13 nM
- Drug uptake(free) [7]: 22 nM
- Drug uptake(free) [8]: 105 nM
- Drug uptake(free) [9]: 240 nM

Structure (SMILES): Cc1cc(C)c2c(n1)CN(C(=O)CC1CC1)C2
- logD [10]: 1.84
